Legend:
Male rats = assay: stress-induced erosion test of Senay and Levine (anti-ulcer activity); format: in vivo; conditions: dosed orally, cold restraint 3 hours
Description: Anti-ulcer activity was determined by the stressinduced erosion test of Senay and Levine, Proc. Soc. Exp. Biol. Med., 124, 1221-3 (1967). The procedure used was as follows.
Male rats, weighing between 80 and 120 gms. were fasted overnight with water ad lib. The rats were then divided into groups of six and dosed orally with the test drug in the form of a solution or with the vehicle alone, 0.5% carboxymethylcellulose, in a volume of 10ml/kg.
After 30 minutes the rats were inserted into aluminium restraining tubes measuring 15/8 inches in diameter by 5 inches and placed in the cold (4±1° C.) for 3 hours. Immediately after cold exposure the rats were killed with intracranial alcohol and their stomachs excised and opened along the greater curvature. Each stomach was washed gently free of contents with warm tap water and pinned out on a board. The condition of the gastric mucosa was then scored from 0 to 6 on the following scale:
The maximum possible score for each animal was 6 and for the group 36. Decrease in ulcer formation was calculated as a percentage of the control score, i.e. [formula] The statistical significance of the effect is assessed by Student's t-test.

H^+ /K^+ ATPase = biological target: T1, H^+ /K^+ ATPase (Oryctolagus cuniculus, UniProt P27112); assay: 14C-aminopyrine uptake in rabbit isolated gastric glands stimulated by DBcAMP or high K+; format: cell-based; conditions: at 10^-4 M, read-out: % Inhibition to stimulation by K^+
T1 construct: Rabbit gastric glands are isolated from gastric mucosa from the corpus region of the stomach; from tissue; host or cells: rabbit isolated gastric glands (gastric mucosa, corpus region of the stomach)
Description: Compounds of formula I were also tested for anti-secretory activity by their ability to inhibit the highly specific proton transporting enzyme H^+ /K^+ ATPase.
Potential H^+ /K^+ ATPase inhibitors were evaluated by a technique involving the measurement of aminopyrine accumulation in rabbit isolated gastric glands. Aminopyrine accumulates in acid-secreting cells; therefore, uptake of aminopyrine is increased by secretagogues and an inhibitor of acid secretion will reduce the response to one or more secretagogues depending upon its site of action. Compounds which reduce the response to dibutyryl cyclic adenosine monophosphate (DBcAMP) stimulation are assumed to have an intracellular site of action; and those which reduce the response to both DBcAMP and high potassium ion concentration (K^+) are thought to have an intracellular site of action at the secretory surface of the parietal cell, involving the highly specific proton-transporting enzyme, H^+ /K^+ ATPase.
The following test procedure is used: […]
Compounds are tested at a concentration of 10^-4 M, initially, and in some cases at lower concentrations, for their ability to inhibit ^14 C-aminopyrine uptake in gastric glands, stimulated by DBcAMP and high K^+ respectively. Results are expressed as the % inhibition of the maximum response to the secretagogue induced by the test compound. […]

T1 sequence (P27112 2-1035 limits assumed): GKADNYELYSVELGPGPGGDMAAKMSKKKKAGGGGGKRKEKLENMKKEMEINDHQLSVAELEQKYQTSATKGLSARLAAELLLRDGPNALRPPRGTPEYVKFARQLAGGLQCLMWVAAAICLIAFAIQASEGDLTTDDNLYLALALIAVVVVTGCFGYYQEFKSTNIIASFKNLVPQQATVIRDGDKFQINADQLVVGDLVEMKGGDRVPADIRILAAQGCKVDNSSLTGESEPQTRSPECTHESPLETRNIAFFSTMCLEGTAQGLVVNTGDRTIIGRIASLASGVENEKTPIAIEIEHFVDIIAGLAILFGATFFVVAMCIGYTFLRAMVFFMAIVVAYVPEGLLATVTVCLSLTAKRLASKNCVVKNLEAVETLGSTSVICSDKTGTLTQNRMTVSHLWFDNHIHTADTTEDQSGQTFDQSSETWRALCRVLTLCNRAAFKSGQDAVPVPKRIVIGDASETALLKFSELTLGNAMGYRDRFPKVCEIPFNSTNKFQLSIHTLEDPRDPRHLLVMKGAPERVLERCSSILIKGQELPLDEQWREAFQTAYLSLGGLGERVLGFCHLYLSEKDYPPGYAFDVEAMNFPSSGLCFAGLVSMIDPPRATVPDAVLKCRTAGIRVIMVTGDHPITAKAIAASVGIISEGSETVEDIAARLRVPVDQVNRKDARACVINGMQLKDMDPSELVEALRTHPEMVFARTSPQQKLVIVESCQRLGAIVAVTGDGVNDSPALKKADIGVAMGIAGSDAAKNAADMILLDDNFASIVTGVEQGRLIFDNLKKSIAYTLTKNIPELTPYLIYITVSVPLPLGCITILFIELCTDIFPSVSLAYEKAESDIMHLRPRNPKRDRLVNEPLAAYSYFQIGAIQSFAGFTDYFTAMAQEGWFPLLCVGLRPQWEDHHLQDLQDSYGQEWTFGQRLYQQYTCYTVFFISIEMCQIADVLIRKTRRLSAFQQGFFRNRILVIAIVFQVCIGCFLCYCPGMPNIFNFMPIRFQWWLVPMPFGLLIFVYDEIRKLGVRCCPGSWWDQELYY
T1 sequence (P18597 whole entry partner): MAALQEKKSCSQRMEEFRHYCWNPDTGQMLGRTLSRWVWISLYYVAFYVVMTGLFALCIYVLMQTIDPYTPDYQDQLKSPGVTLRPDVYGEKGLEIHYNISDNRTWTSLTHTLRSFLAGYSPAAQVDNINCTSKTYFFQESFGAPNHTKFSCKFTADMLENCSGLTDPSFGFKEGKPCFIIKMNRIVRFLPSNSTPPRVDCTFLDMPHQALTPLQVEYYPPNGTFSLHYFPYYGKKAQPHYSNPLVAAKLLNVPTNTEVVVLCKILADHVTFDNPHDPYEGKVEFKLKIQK

| SMILES | Inhibition (decrease in ulcer formation as percentage of control score) (Male rats; dose 30 mg/kg) [%] | Inhibition (decrease in ulcer formation as percentage of control score) (Male rats; dose 100 mg/kg) [%] | inhibition at 100 µM (H^+ /K^+ ATPase) [%] |
| --- | --- | --- | --- |
| c1ccc(C2Cn3c(nc4ccccc43)S2)nc1 (centres unmarked) [Example 1, 2,3-Dihydro-2-(2-pyridyl)thiazolo[3,2-a]benzimidazole] | 86 | 75 |  |
| c1ccc(C2Cn3c(nc4ccccc43)S2)cc1 (centres unmarked) [Example 3, 2,3-Dihydro-2-phenylthiazolo[3,2-a]benzimidazole] |  | 74 |  |
| Clc1cc2nc3n(c2cc1Cl)CC(c1ccccn1)S3 (centres unmarked) [Example 8, 6,7-Dichloro-2,3-dihydro-2-(2-pyridyl)thiazolo[3,2-a]benzimidazole] |  |  | 74 |
| Cc1cc2nc3n(c2cc1C)CC(c1ccccn1)S3 (centres unmarked) [Example 9, 2,3-Dihydro-6,7-dimethyl-2-(2-pyridyl)thiazolo[3,2-a]benzimidazole] |  | 82 |  |

From patent US4873237A, “2,3-dihydro- thiazolo- and thiazino- benzimidazoles as atni-hyper secretion agents” (John Wyeth & Brother Limited, priority 1983, dated 1989)
